Test results taken from PMC12527977, “Discovery of a novel tetrapeptide as glucose homeostasis modulator with bifunctionalities of targeting DPP‐IV and microbiota” (iMeta, 2025).
Where a SMILES comes first, the peptide text is derived from it.

How the values were obtained:
[1] = target: T1, DPP-IV (Homo sapiens, UniProt P27487); assay: Surface plasmon resonance (Biacore 8K, CM5 chip, 25 °C); type: binding; set-up: purchased QiZheng Biotech (Shanghai, China) IBDPP0901; conditions: SPR, Table S3; read-out: KD values
[2] = Tissue distribution of VAMP 30 min after 10 mg/kg by gavage; type: in vivo, mouse; conditions: for Tissue distribution, relative proportion in Heart / Tissue distribution, relative proportion in Intestinal content / Tissue distribution, relative proportion in Intestinal tissue / Tissue distribution, relative proportion in Kidney / Tissue distribution, relative proportion in Liver / Tissue distribution, relative proportion in Lung / Tissue distribution, relative proportion in Spleen: 10 mg/kg by gavage, 30 min
Method: FIGURE 2 VAMP inhibits intestinal dipeptidyl peptidase IV (DPP‐IV) and increases the abundance of A. muciniphila. (A) The experimental scheme for (B–O) is shown, n = 6 mice/group. HFD‐fed mice were treated with PBS (vehicle group) or VAMP (50 mg/kg, VAMP group) for 8 weeks by oral gavage. (B) The body weight change, (C) FBG level, (D) intestinal active GLP‐1 levels, (E) plasma active GLP‐1 levels, (F) OGTT curve, (G) AUC of the OGTT, and (H) HOMA‐IR index were evaluated. (I) Intestinal permeability was measured by plasma fluorescence intensity after gavage with FITC‐dextran 4000. (J) The plasma levels of LPS, (K) TNF‐α, and (L) IL‐1β were determined. (M) Carnoy‐fixed colonic tissue sections were stained with Alcian blue/periodic acid‐Schiff. Scale bars, 100 µm. (N) Blinded colonic mucus layer measurements were made from Alcian blue‐stained sections. (O) The relative expression of Tjp1, Ocln, Cldn1, Cldn3, Cldn4, Cldn5, and Muc2 mRNAs in colonic tissue was determined. (P) The blood pharmacokinetics of 10 mg/kg VAMP administered by injection (i.v.) or gavage (p.o.) over time were evaluated. (Q) The tissue distribution of VAMP at the time of peak plasma concentration (30 min) after the administration of 10 mg/kg VAMP by gavage was determined (n = 4). (R) PCoA was performed using the Bray‒Curtis distance. (S, T) Taxonomic cladograms were generated by LEfSe analysis. The blue color indicates enriched taxa in the VAMP group, and the red color indicates enriched taxa in the vehicle group. The size of each circle is proportional to the taxon's abundance. (U) The change in bacterial abundance at the species level after VAMP treatment was determined via random forest analysis. (V) Growth curve of A. muciniphila cultured in BHI media supplemented with VAMP (50 μM) or PBS (Vehicle) and then grown anaerobically. (W−Y) RNA‐seq analysis of the A. muciniphila cultured in BHI media supplemented with VAMP (50 μM) or PBS control (Vehicle) was performed (n = 3). (W) PCA of transcriptome. (X) Biofunction changes of A. muciniphila by VAMP treatment via KEGG enrichment analysis. (Y) Volcano plot of transcriptome sequencing of Vehicle and VAMP groups. (Z) Levels of peptidoglycan by VAMP treatment. *p < 0.05 and **p < 0.01 versus the vehicle group. AUC, area under the curve; BHI, brain heart infusion; FBG, fasting blood glucose; GLP‐1, glucagon‐like peptide‐1; HOMA‐IR, homeostatic model assessment of insulin resistance; IL‐1β, interleukin‐1β; LEfSe, linear discriminant analysis effect size; LPS, lipopolysaccharide; OGTT, oral glucose tolerance test; PCoA, principal coordinate analysis; TNF‐α, tumor necrosis factor α.
(§1) We first determined the VAMP metabolic kinetics in model mice.

[3] = Blood pharmacokinetics of VAMP, 10 mg/kg i.v. or p.o.; type: in vivo; conditions: mouse, po
Method: FIGURE 2 VAMP inhibits intestinal dipeptidyl peptidase IV (DPP‐IV) and increases the abundance of A. muciniphila. (A) The experimental scheme for (B–O) is shown, n = 6 mice/group. HFD‐fed mice were treated with PBS (vehicle group) or VAMP (50 mg/kg, VAMP group) for 8 weeks by oral gavage. (B) The body weight change, (C) FBG level, (D) intestinal active GLP‐1 levels, (E) plasma active GLP‐1 levels, (F) OGTT curve, (G) AUC of the OGTT, and (H) HOMA‐IR index were evaluated. (I) Intestinal permeability was measured by plasma fluorescence intensity after gavage with FITC‐dextran 4000. (J) The plasma levels of LPS, (K) TNF‐α, and (L) IL‐1β were determined. (M) Carnoy‐fixed colonic tissue sections were stained with Alcian blue/periodic acid‐Schiff. Scale bars, 100 µm. […] (O) The relative expression of Tjp1, Ocln, Cldn1, Cldn3, Cldn4, Cldn5, and Muc2 mRNAs in colonic tissue was determined. (P) The blood pharmacokinetics of 10 mg/kg VAMP administered by injection (i.v.) or gavage (p.o.) over time were evaluated. (Q) The tissue distribution of VAMP at the time of peak plasma concentration (30 min) after the administration of 10 mg/kg VAMP by gavage was determined (n = 4). […] (U) The change in bacterial abundance at the species level after VAMP treatment was determined via random forest analysis. […]
as §1

[4] = target: T1, DPP-IV; assay: DPP-IV inhibitory activity of peptides (DPP-IV-Glo Protease Assay Kit); type: biochemical; set-up: purchased QiZheng Biotech (Shanghai, China) IBDPP0901; conditions: for DPP-IV inhibitory activity: DPP-IV-Glo Protease Assay Kit, control = 0, sheet S2F, in % (unit assumed)
Target sequence in this assay (P27487 whole entry): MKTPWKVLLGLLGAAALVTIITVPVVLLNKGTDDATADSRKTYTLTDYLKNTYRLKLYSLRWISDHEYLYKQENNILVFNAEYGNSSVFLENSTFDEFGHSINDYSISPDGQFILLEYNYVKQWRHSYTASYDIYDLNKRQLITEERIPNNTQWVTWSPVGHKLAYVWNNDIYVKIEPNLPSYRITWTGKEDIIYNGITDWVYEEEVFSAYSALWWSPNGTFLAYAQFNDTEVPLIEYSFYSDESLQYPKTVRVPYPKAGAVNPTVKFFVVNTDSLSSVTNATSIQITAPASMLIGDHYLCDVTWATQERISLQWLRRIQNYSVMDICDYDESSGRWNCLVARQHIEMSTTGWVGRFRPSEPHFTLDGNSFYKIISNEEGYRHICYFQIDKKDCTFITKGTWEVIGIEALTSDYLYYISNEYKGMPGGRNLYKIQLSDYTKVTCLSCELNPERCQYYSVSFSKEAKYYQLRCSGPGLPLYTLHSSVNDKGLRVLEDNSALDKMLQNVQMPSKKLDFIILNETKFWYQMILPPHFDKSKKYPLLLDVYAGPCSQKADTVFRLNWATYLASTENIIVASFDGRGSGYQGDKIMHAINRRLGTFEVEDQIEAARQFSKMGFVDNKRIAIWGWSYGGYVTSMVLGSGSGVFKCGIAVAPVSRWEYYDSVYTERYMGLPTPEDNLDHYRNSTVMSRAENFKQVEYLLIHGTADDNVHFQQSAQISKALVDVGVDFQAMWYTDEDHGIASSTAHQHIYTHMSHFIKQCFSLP

[5] = in vitro; type: in vitro ADME, Akkermansia muciniphila; conditions: cells or culture medium, VAMP remaining, incubated with A. muciniphila
Text: (§2) The levels of VAMP at different time points were quantified by targeted metabolomics.

[6] = test system: faeces-derived bacterial community; assay: in vitro; type: in vitro ADME
Text: as §2

[7] = in vitro; type: in vitro ADME; conditions: cells or culture medium, VAMP (%) remaining
Text: as §2

[8] = test system: porcine pepsase and trypsase; assay: Simulated digestive stability of peptides (pepsase then trypsase); type: in vitro ADME; conditions: in words; 5.0 mg/mL peptide, pepsase 5000 U/mL pH 3.0 37 °C 2 h, then trypsase 100 U/mL pH 7.0 37 °C 2 h, LC-MS
Method: The in vitro digestibility of the peptides was determined according to the method described by Ohanenye et al. with some modifications. Briefly, 5.0 mg/mL peptides were mixed with 5000 U/mL porcine pepsase (pH 3.0). The mixture was incubated with continuous shaking in a water bath at 37 ℃ for 2 h. Then, the mixture was adjusted to pH 7.0, and a final concentration of 100 U/mL trypsase was added, followed by continuous shaking at 37 ℃ for another 2 h. After digestion, the enzyme was inactivated, and the mixture was incubated in a water bath (100 ℃) for 20 min. Subsequently, the mixture was centrifuged at 6000 rpm for 20 min, after which the supernatants were collected for further analysis. The concentrations of peptides in the digestions and TPH were determined via AB SCIEX QTrap 6600+ (AB Sciex, Framingham, Massachusetts).

## CSCC[C@H](NC(=O)[C@H](C)NC(=O)[C@@H](N)C(C)C)C(=O)N1CCC[C@H]1C(=O)O [VAMP] (H-VAMP-OH)
[1]
  Kd: 6.89 µM
[2]; animal 1
  Tissue distribution, relative proportion in Heart: 0.7129%
  Tissue distribution, relative proportion in Intestinal content: 72.8435%
  Tissue distribution, relative proportion in Intestinal tissue: 17.3859%
  Tissue distribution, relative proportion in Kidney: 1.873%
  Tissue distribution, relative proportion in Liver: 2.36%
  Tissue distribution, relative proportion in Lung: 1.2931%
  Tissue distribution, relative proportion in Spleen: 3.531%
[2]; animal 2
  Tissue distribution, relative proportion in Heart: 0.3824%
  Tissue distribution, relative proportion in Intestinal content: 73.0882%
  Tissue distribution, relative proportion in Intestinal tissue: 19.9706%
  Tissue distribution, relative proportion in Kidney: 1.279%
  Tissue distribution, relative proportion in Liver: 2.103%
  Tissue distribution, relative proportion in Lung: 0.9118%
  Tissue distribution, relative proportion in Spleen: 2.265%
[2]; animal 3
  Tissue distribution, relative proportion in Heart: 0.4562%
  Tissue distribution, relative proportion in Intestinal content: 74.7307%
  Tissue distribution, relative proportion in Intestinal tissue: 19.1872%
  Tissue distribution, relative proportion in Kidney: 0.6681%
  Tissue distribution, relative proportion in Liver: 1.699%
  Tissue distribution, relative proportion in Lung: 0.5703%
  Tissue distribution, relative proportion in Spleen: 2.689%
[2]; animal 4
  Tissue distribution, relative proportion in Heart: 0.5116%
  Tissue distribution, relative proportion in Intestinal content: 76.0476%
  Tissue distribution, relative proportion in Intestinal tissue: 16.2858%
  Tissue distribution, relative proportion in Kidney: 1.305%
  Tissue distribution, relative proportion in Liver: 2.163%
  Tissue distribution, relative proportion in Lung: 0.882%
  Tissue distribution, relative proportion in Spleen: 2.805%
[2]; after gavage
  VAMP remaining in the intestinal content at the time of peak plasma concentration: 74.18%
[3]; blood, mice, 10 mg/kg p.o. vs i.v., printed in picture Fig 2P
  bioavailability: 10.5%
[3]; plasma, 10 mg/kg by gavage, read-out: Time of peak plasma concentration (converted)
  Tmax: 30 min
[4]
  inhibition at 1 µg/mL: 50.7%
  inhibition at 20 µg/mL: 52.1%
  inhibition at 50 µg/mL: 68.9%
  inhibition at 100 µg/mL: 77.6%
  inhibition at 200 µg/mL: 81.5%
[4]; replicate 1
  DPP-IV inhibitory activity: 68.9829
[4]; replicate 2
  DPP-IV inhibitory activity: 67.7707
[4]; replicate 3
  DPP-IV inhibitory activity: 61.9665
[4]; Table S3, read-out: IC50
  IC50: 1 µM
[5]; time 3
  remaining at 3 h, 100 μM: 98.6%
[5]; time 6
  remaining at 6 h, 100 μM: 95.4%
[5]; time 9
  remaining at 9 h, 100 μM: 93.3%
[5]; time 12
  remaining at 12 h, 100 μM: 79.6%
[5]; time 24
  remaining at 24 h, 100 μM: 28.1%
[5]; time 36
  remaining at 36 h, 100 μM: 21.4%
[5]; time 48
  remaining at 48 h, 100 μM: 19.3%
[6]
  Degradation of VAMP in faeces-derived microbial community culture: degraded by gut microbiota
[7]; 3 h
  remaining at 3 h, 100 μM: 98.5%
[7]; 6 h
  remaining at 6 h, 100 μM: 84.6%
[7]; 12 h
  remaining at 12 h, 100 μM: 51.7%
[7]; 36 h
  remaining at 36 h, 100 μM: 2.1%
[7]; 48 h
  remaining at 48 h, 100 μM: 0%
[8]
  Resistance to simulated gastric pepsase and trypsase digestion: readily resistant
